Laboratory results as given in ChEMBL document CHEMBL1122236, “3'-Amino-2',3'-dideoxyribonucleosides of some pyrimidines: synthesis and biological activities” (1983).

test system: Citrobacter freundii; test: Minimum inhibitory concentration against Citrobacter freundii; type: functional; conditions: not given

Row | SMILES | MIC
1 | NC1CC(n2cc(Br)c(=O)[nH]c2=O)OC1CO (stereo unspecified) | > 200 µM
2 | Cc1cn([C@H]2C[C@H](N)[C@@H](CO)O2)c(=O)[nH]c1=O [3-AMINO- 3-DEOXYTHYMIDINE] | > 200 µM
3 | N[C@H]1C[C@H](n2ccc(=O)[nH]c2=O)O[C@@H]1CO | > 200 µM

test system: Serratia marcescens; test: Minimum inhibitory concentration against Serratia marcescens; type: functional; conditions: not given

Row | SMILES | MIC
4 | NC1CC(n2cc(Br)c(=O)[nH]c2=O)OC1CO (stereo unspecified) | > 200 µM
5 | Cc1cn([C@H]2C[C@H](N)[C@@H](CO)O2)c(=O)[nH]c1=O [3-AMINO- 3-DEOXYTHYMIDINE] | > 200 µM
6 | N[C@H]1C[C@H](n2ccc(=O)[nH]c2=O)O[C@@H]1CO | > 200 µM

test system: Klebsiella aerogenes; test: Minimum inhibitory concentration against Enterobacter aerogenes; type: functional; conditions: not given

Row | SMILES | MIC
7 | NC1CC(n2cc(Br)c(=O)[nH]c2=O)OC1CO (stereo unspecified) | > 200 µM
8 | Cc1cn([C@H]2C[C@H](N)[C@@H](CO)O2)c(=O)[nH]c1=O [3-AMINO- 3-DEOXYTHYMIDINE] | > 200 µM
9 | N[C@H]1C[C@H](n2ccc(=O)[nH]c2=O)O[C@@H]1CO | > 200 µM

test system: Proteus vulgaris; test: Minimum inhibitory concentration against Proteus vulgaris; type: functional; conditions: not given

Row | SMILES | MIC
10 | NC1CC(n2cc(Br)c(=O)[nH]c2=O)OC1CO (stereo unspecified) | > 200 µM
11 | Cc1cn([C@H]2C[C@H](N)[C@@H](CO)O2)c(=O)[nH]c1=O [3-AMINO- 3-DEOXYTHYMIDINE] | > 200 µM
12 | N[C@H]1C[C@H](n2ccc(=O)[nH]c2=O)O[C@@H]1CO | > 200 µM

test system: Proteus mirabilis; test: Minimum inhibitory concentration against Proteus mirabilis; type: functional; conditions: not given

Row | SMILES | MIC
13 | NC1CC(n2cc(Br)c(=O)[nH]c2=O)OC1CO (stereo unspecified) | > 200 µM
14 | Cc1cn([C@H]2C[C@H](N)[C@@H](CO)O2)c(=O)[nH]c1=O [3-AMINO- 3-DEOXYTHYMIDINE] | > 200 µM
15 | N[C@H]1C[C@H](n2ccc(=O)[nH]c2=O)O[C@@H]1CO | > 200 µM

test system: unidentified adenovirus; test: In vitro antiviral activity against adeno virus using plaque reduction assay.; type: functional; conditions: read-out: ED50 (the source's name)

Row | SMILES | EC50
16 | NC1CC(n2cc(Br)c(=O)[nH]c2=O)OC1CO (stereo unspecified) | 100 µM
17 | Cc1cn([C@H]2C[C@H](N)[C@@H](CO)O2)c(=O)[nH]c1=O [3-AMINO- 3-DEOXYTHYMIDINE] | > 100 µM
18 | N[C@H]1C[C@H](n2ccc(=O)[nH]c2=O)O[C@@H]1CO | > 100 µM

test system: D-38; test: In vitro cytotoxicity against human D-38 cells.; type: functional; conditions: read-out: ED50 (the source's name)

Row | SMILES | EC50
19 | NC1CC(n2cc(Br)c(=O)[nH]c2=O)OC1CO (stereo unspecified) | > 100 µM
20 | Cc1cn([C@H]2C[C@H](N)[C@@H](CO)O2)c(=O)[nH]c1=O [3-AMINO- 3-DEOXYTHYMIDINE] | 100 µM
21 | N[C@H]1C[C@H](n2ccc(=O)[nH]c2=O)O[C@@H]1CO | > 100 µM

test system: Escherichia coli; test: Minimum inhibitory concentration against Escherichia coli; type: functional; conditions: not given

Row | SMILES | MIC
22 | NC1CC(n2cc(Br)c(=O)[nH]c2=O)OC1CO (stereo unspecified) | > 200 µM
23 | Cc1cn([C@H]2C[C@H](N)[C@@H](CO)O2)c(=O)[nH]c1=O [3-AMINO- 3-DEOXYTHYMIDINE] | > 200 µM
24 | N[C@H]1C[C@H](n2ccc(=O)[nH]c2=O)O[C@@H]1CO | > 200 µM

test system: Salmonella typhimurium; test: Minimum inhibitory concentration against Salmonella Typhimurium; type: functional, Salmonella enterica subsp. enterica serovar Typhimurium; conditions: Salmonella enterica

Row | SMILES | MIC
25 | NC1CC(n2cc(Br)c(=O)[nH]c2=O)OC1CO (stereo unspecified) | > 200 µM
26 | Cc1cn([C@H]2C[C@H](N)[C@@H](CO)O2)c(=O)[nH]c1=O [3-AMINO- 3-DEOXYTHYMIDINE] | > 200 µM
27 | N[C@H]1C[C@H](n2ccc(=O)[nH]c2=O)O[C@@H]1CO | > 200 µM

test system: Shigella flexneri; test: Minimum inhibitory concentration against Shigella flexneri; type: functional; conditions: not given

Row | SMILES | MIC
28 | NC1CC(n2cc(Br)c(=O)[nH]c2=O)OC1CO (stereo unspecified) | > 200 µM
29 | Cc1cn([C@H]2C[C@H](N)[C@@H](CO)O2)c(=O)[nH]c1=O [3-AMINO- 3-DEOXYTHYMIDINE] | > 200 µM
30 | N[C@H]1C[C@H](n2ccc(=O)[nH]c2=O)O[C@@H]1CO | > 200 µM

test system: Salmonella; test: Minimum inhibitory concentration against Salmonella typhi; type: functional, salmonella typhosa; conditions: not given

Row | SMILES | MIC
31 | NC1CC(n2cc(Br)c(=O)[nH]c2=O)OC1CO (stereo unspecified) | > 200 µM
32 | Cc1cn([C@H]2C[C@H](N)[C@@H](CO)O2)c(=O)[nH]c1=O [3-AMINO- 3-DEOXYTHYMIDINE] | > 200 µM
33 | N[C@H]1C[C@H](n2ccc(=O)[nH]c2=O)O[C@@H]1CO | > 200 µM

test system: Pasteurella multocida; test: Minimum inhibitory concentration against Pasteurella multocida; type: functional; conditions: not given

Row | SMILES | MIC
34 | NC1CC(n2cc(Br)c(=O)[nH]c2=O)OC1CO (stereo unspecified) | > 200 µM
35 | Cc1cn([C@H]2C[C@H](N)[C@@H](CO)O2)c(=O)[nH]c1=O [3-AMINO- 3-DEOXYTHYMIDINE] | > 200 µM
36 | N[C@H]1C[C@H](n2ccc(=O)[nH]c2=O)O[C@@H]1CO | > 200 µM

test system: Klebsiella pneumoniae; test: Minimum inhibitory concentration against Klebsiella pneumoniae; type: functional; conditions: not given

Row | SMILES | MIC
37 | NC1CC(n2cc(Br)c(=O)[nH]c2=O)OC1CO (stereo unspecified) | > 200 µM
38 | Cc1cn([C@H]2C[C@H](N)[C@@H](CO)O2)c(=O)[nH]c1=O [3-AMINO- 3-DEOXYTHYMIDINE] | > 200 µM
39 | N[C@H]1C[C@H](n2ccc(=O)[nH]c2=O)O[C@@H]1CO | > 200 µM

test system: L cells; test: in vitro cytotoxicity against mouse L cells.; type: functional; conditions: L929, read-out: ED50 (the source's name)

Row | SMILES | EC50
40 | NC1CC(n2cc(Br)c(=O)[nH]c2=O)OC1CO (stereo unspecified) | > 100 µM
41 | Cc1cn([C@H]2C[C@H](N)[C@@H](CO)O2)c(=O)[nH]c1=O [3-AMINO- 3-DEOXYTHYMIDINE] | 3 µM
42 | N[C@H]1C[C@H](n2ccc(=O)[nH]c2=O)O[C@@H]1CO | > 100 µM

test system: Vibrio cholerae; test: Minimum inhibitory concentration against Vibrio cholerae; type: functional; conditions: not given

Row | SMILES | MIC
43 | NC1CC(n2cc(Br)c(=O)[nH]c2=O)OC1CO (stereo unspecified) | > 200 µM
44 | Cc1cn([C@H]2C[C@H](N)[C@@H](CO)O2)c(=O)[nH]c1=O [3-AMINO- 3-DEOXYTHYMIDINE] | > 200 µM
45 | N[C@H]1C[C@H](n2ccc(=O)[nH]c2=O)O[C@@H]1CO | > 200 µM

test system: Pseudomonas aeruginosa; test: Minimum inhibitory concentration against Pseudomonas aeruginosa; type: functional; conditions: not given

Row | SMILES | MIC
46 | NC1CC(n2cc(Br)c(=O)[nH]c2=O)OC1CO (stereo unspecified) | > 200 µM
47 | Cc1cn([C@H]2C[C@H](N)[C@@H](CO)O2)c(=O)[nH]c1=O [3-AMINO- 3-DEOXYTHYMIDINE] | > 200 µM
48 | N[C@H]1C[C@H](n2ccc(=O)[nH]c2=O)O[C@@H]1CO | > 200 µM

test system: Staphylococcus aureus; test: In vitro minimum inhibitory concentration against Staphylococcus aureus; type: functional; conditions: not given

Row | SMILES | MIC
49 | NC1CC(n2cc(Br)c(=O)[nH]c2=O)OC1CO (stereo unspecified) | > 400 µM
50 | Cc1cn([C@H]2C[C@H](N)[C@@H](CO)O2)c(=O)[nH]c1=O [3-AMINO- 3-DEOXYTHYMIDINE] | > 400 µM
51 | N[C@H]1C[C@H](n2ccc(=O)[nH]c2=O)O[C@@H]1CO | > 400 µM
